Test results: paper PMC4168161, “A novel approach for the discovery of chemically diverse anti-malarial compounds targeting the Plasmodium falciparum Coenzyme A synthesis pathway” (Malaria Journal, 2014)

Columns and labels:
[1] = tested on: P. falciparum CoA synthesis pathway; assay: Coenzyme A chemical rescue assay on P. falciparum; format: cell-based, Plasmodium falciparum; settings: for IC50 shift upon CoA supplementation: eight-point dose response, fixed CoA (0.8-2 mM), n = 2
Description: The well-established P. falciparum imaging assay was modified to allow assessment of chemical rescue with CoA. In brief, sorbitol (5% w/v) synchronization was performed twice, approximately 8 hr apart, on each synchronization day for two consecutive ring cycles, i.e., on day 1 and 3 of assay preparation. On day 2 the culture was split to approximately 2% trophozoite parasitaemia. On day 4 the culture was split to 1-1.5% trophozoite parasitaemia, which yielded approximately 8% ring parasitaemia after 48 hr (on day 5, i.e., the day of the assay set-up). Compound stocks (10 mM in 100% DMSO) were diluted 1:25 in sterile water, less than 24 hr prior to use. An additional 1:10 dilution was performed, resulting in a 1:250 overall compound dilution and a final DMSO concentration of 0.4%. For initial screening, compounds were tested at a final 2 μM concentration. […] The known P. falciparum CoA synthesis inhibitor, panthenol, was prepared as a 100 mM solution in 4% DMSO. The final concentration of the dose response curve of panthenol started at 10 mM and was serially diluted down to 100 nM. CoA was dissolved in water. […] Five μl of the 1:25 diluted test compound or control solutions were added to 384-well CellCarrier imaging plates (PerkinElmer). For the chemical rescue, 5 μl of CoA solution were added to ‘rescue’ wells and 5 μl water to all control and reference wells, respectively. Parasite culture was added to a final concentration of 1% parasitaemia (% P) and 0.3% haematocrit (% H). Plates were incubated for 72 hr at 37°C, 5% CO2 and 95% humidity. On day 8 the permeabilization and nuclear staining buffer was prepared in PBS containing 10 μg/ml saponin, 0.01% triton X, 5 mM EDTA (all: Sigma) and 0.5 μg/ml 4′,6-diamidino-2-phenylindole (DAPI; Life Technologies). The plates were left for at least 4 hr (typically overnight), before confocal imaging on an Opera™ High Content Screening Platform (PerkinElmer) at 405 nm excitation with a 20x water objective. Automated primary image analysis was performed concurrent with the imaging process, utilizing an Acapella® software (PerkinElmer) script to determine the number of parasites based on object size and fluorescence intensity. Determination of the % growth compared to controls (2 μM artemisinin as positive and 0.4% DMSO as negative control) was performed in Microsoft® Excel 2010. Statistical analysis including IC50 determination and graphical output was performed in GraphPad Prism® 5 using non-linear regression variable slope curve fitting. Cell-based high throughput screening (HTS) entails the distinct benefit that positive hits have already proven effective against the live parasite within its natural host erythrocyte environment. Modifications of an image-based assay were undertaken to identify compounds that interfere with the P. falciparum CoA pathway. The modification involved a chemical rescue approach adapted from a similar method used to investigate apicoplast function. The principle idea of the chemical rescue approach is that supplementation of an unbranched pathway’s end product – in this case CoA - should abrogate, or at least alleviate, negative growth effects of compounds inhibiting any step in the pathway. […] To identify new potential CoA synthesis inhibitors, the CoA chemical rescue approach was used to screen 144 compounds with known antiplasmodial activity identified by HTS in the Avery laboratory, in addition to the MMV malaria box. […] Compounds which rescued growth to at least 50% of control values and two-fold difference compared to treatment alone, were regarded as partial rescue hits.

HEK293 cells = assay: CoA chemical rescue on HEK293 cells; format: cell-based, human; settings: dose response with and without CoA, n = 2
Description: To assess cytotoxicity of compounds in dose response, a resazurin-based assay was utilized to determine cell viability. In brief, HEK293 cells were grown in DMEM medium (Life Technologies) containing 10% foetal calf serum (FCS; Gibco). Cells were trypsinized, counted and seeded at 2,000 cells per well in 45 μl media into TC-treated 384-well plates (Falcon) and left to adhere overnight at 37°C, 5% CO2 and 95% humidity.
Plates were incubated for 72 hr at 37°C, 5% CO2 and 95% humidity, then the media was removed and replaced by 35 μl of 44 μM resazurin in DMEM without FCS. The plates were incubated for another 4-6 hr at 37°C, 5% CO2 and 95% humidity before reading on an EnVision® Plate Reader (PerkinElmer) using fluorescence excitation/emission settings of 530 nm/595 nm. Determination of the% growth compared to controls (40 μM puromycin as positive and 0.4% DMSO as negative control) was performed in Microsoft® Excel 2010. Statistical analysis including IC50 determination and graphical output was performed in GraphPad Prism® 5 using nonlinear regression variable slope curve fitting.

[2] = compound at ~ IC80, with CoA supplementation
[3] = at 2 μM compound, with CoA supplementation

SMILES	CoA rescue (relative parasite number, % of untreated control) [1, 2] [% rescue at ~ IC80]	IC50 shift upon CoA supplementation [1]	CoA rescue (relative parasite number, % of untreated control) [1, 3] [% rescue at 2 μM]	cytotoxic effect on HEK293 cells upon CoA addition (HEK293 cells)	CoA rescue hit confirmation ([1]; retest)
Cc1csc(Sc2ncnc3sccc23)n1 [Amb180780]	80	greater than six times			
CC(=O)c1ccc2c3c(onc13)-c1ccccc1C2=O [Amb3377585]	50	greater than six times			
CCOc1ccc(Nc2c3ccccc3nc3ccccc23)cc1.Cl [MMV000304/Amb636705]		1.5 times	80	reduced upon CoA addition	
CCc1ccc(Nc2cc(C)c3ccc(O)cc3n2)cc1.Cl [MMV000570/C614-0191]	80	more than doubled			
COc1ccc2c(=O)cc(C(Cl)(Cl)Cl)oc2c1 [MMV665820/5534045]		greater than six times	80		confirmed as a hit
CC(C)=NOC(=O)c1c(C)noc1-c1snnc1C [SPB03400]	50	1.5 times			
CC1=CC(=O)C(C(C)C)=C/C1=N/OS(=O)(=O)c1ccccc1 [STK 740987]		greater than six times	50		
